Results from patent US20020165197A1, “Modulation of GSK-3beta activity and its different uses” (priority 2001, published 2002).

Experiments:
GSK-3β = assay: Western blot of GSK-3β (total and phosphorylated) in B16-F10 melanoma cell extracts; assay type: cell-based
Description: (§1) Cells (B16-F10 melanoma cells) were maintained in RPMI medium supplemented with 10% […], 200 mM glutamine, 100 U/ml penicillin and 100 μg/ml streptomycin. They were transferred to a freshly prepared medium twice weekly. For all studies we used serum starved cells. FBS was omitted from the cultures for 18 hours and the experiment was carried out on monolayers of cells in RPMI medium supplemented with 1% FBS in a 37° C., 5% CO2 incubator.
(§2) To detect the level of expression of PKA, GSK-3β (total and phosphorylated), PKB/Akt (total and phosphorylated), β-catenin, c-myc and cyclin D1, protein extract from IB-MECA treated or untreated serum-starved B16-F10 melanoma cells were utilized. […] Further, to mimic the chain of events occurring upon activation of A2R, cells were incubated with 8Br cAMP.
(§3) At the end of the incubation period, cells were rinsed with ice-cold PBS and lysed in ice-cold lysis buffer (TNN buffer, 50 mM tis buffer pH=7.5, 150 mM NaCl, NP 40). Cell debris was removed by centrifugation at 7500×g for 10 min. Supernatant was utilized for Western Blot analysis. Protein concentrations were determined using the Bio-Rad protein assay dye reagent. […] Bands were recorded using BCIP/NBT color development kit (Promega, Madison, Wis., USA). […]

HIV-1 SF162 = assay: p24 ELISA, HIV replication in SF162 infected astroglia; assay type: cell-based; conditions: Astroglia/SF-162, 0.01 (μM); HIV control 313.38
Description: (§4) Purified primary human fetal astrocytes and microgial cells were prepared from 16 to 20 week old human fetal brain tissue by a modified procedure based on the methods of Cole and de Vellis [R. Cole and J. de Vellis. In: Protocols for neural cell cure. S. Fedoroff and A. Richardson (Eds.) Human Press, Totowa, N.J., pp. is 117-130. (1997)], and Yong and Antel [V. W. Yong and J. P. Antel. In: Protocols for neural cell culture. S. Fedoroff and A. Richardson (Eds.) Humana Press, Totowa, N.J., pp. 157-172 (1997)]. Brain tissue was washed in ice-cold Hank's Balanced Salt Solution (HBSS) containing the antibiotics gentamycin and arnphotericin B. Blood vessels and meninges were removed and the tissue was minced into small pieces. After mincing, the tissue was enzymatically dissociated by incubation in 0.05% trypsin and mechanically disrupted by passing several times over a 75 μm nylon mesh filter. […]
(§5) Brain derived primary HIV-1 isolates SF162 and JR-FL were cultured in human peripheral blood mononuclear cells (PBMC) essentially as described by Gartner and Popovic^12. […] After stimulation, cells were infected with either SF162 or JR-FL and cultured for 7 to 10 days until high titres of MIV-1 were detected in the supernatant by p24 ELISA assay. […]

hair growth = assay: Hair growth in nude mice inoculated with HCT-116 colon carcinoma cells; assay type: in vivo, Nude mice (BalbC origin); conditions: 6 μg/kg body weight orally daily, 30 days
Description: Nude mice (BalbC origin) were subcutaneously inoculated with HCT16 human colon carcinoma cells, which thus developed a visible tumor.
Cl-IB-MECA was dissolved in DMSO and kept as a stock solution. in a concentration of 10 mM. Before administration to the mice, the stock solution was diluted with PBS to a concentration so that each mice received a dosage of 6 μg/kg body weight.
Nude mice (BalbC origin) were subcutaneously inoculated wit HCT-16 human colon carcinoma cells. These mice were divided into two groups:
Study group which was daily and orally administered with Cl-IB-MECA (6 μg/kg body weight) dissolved in DMSO and diluted with PBS.
Control group which was daily and orally administered with DMSO only.

HIV-1 JR-FL = assay: p24 ELISA, HIV replication in JR-FL infected astroglial cells; assay type: cell-based; conditions: Astroglia/JR-FL, 0.01 (μM, every 24 hours); HIV control 22.83
Description: as §4, §5

β-catenin = assay: Western blot of tumor tissue from HCT-116 colon carcinoma bearing mice: β-catenin; assay type: in vivo, Balb/C nude mice; conditions: 6 μg/Kg orally every second day, 30 days
Description: (§6) A similar series of studies was utilized in a colon carcinoma murine animal model to determine whether elements of the Wnt pathway altered by IB-MECA in vitro, occur as well in viro with Cl-B-MECA (another A3RAg). The animal model was generated by subcutaneous injection of 1.2×10^6HCT-116 human colon carcinoma cells to the flank of Balb/C nude mice. The mice were treated orally (by gavage), every second day with 6 μg/Kg Cl-IB-MECA.
(§7) After 30 days the mice were sacrificed and tissue samples from the colon carcinoma foci were harvested and analyzed for the expression of β-catenin and cyclin D1.

cyclin D1 = assay: Western blot of tumor tissue from HCT-116 colon carcinoma bearing mice: cyclin D1; assay type: in vivo, Balb/C nude mice; conditions: 6 μg/Kg orally every second day, 30 days
Description: as §6, §7

c-myc = assay: Western blot of tumor tissue from HCT-116 colon carcinoma bearing mice: c-myc; assay type: in vivo, Balb/C nude mice; conditions: 6 μg/Kg orally every second day, 30 days
HIV-1 SF126 = assay: p24 ELISA, HIV replication in SF infected microglia; assay type: cell-based
Description: Purified primary human fetal astrocytes and microgial cells were prepared from 16 to 20 week old human fetal brain tissue by a modified procedure based on the methods of Cole and de Vellis [R. Cole and J. de Vellis. In: Protocols for neural cell cure. S. Fedoroff and A. Richardson (Eds.) Human Press, Totowa, N.J., pp. is 117-130. (1997)], and Yong and Antel [V. W. Yong and J. P. Antel. In: Protocols for neural cell culture. S. Fedoroff and A. Richardson (Eds.) Humana Press, Totowa, N.J., pp. 157-172 (1997)]. Brain tissue was washed in ice-cold Hank's Balanced Salt Solution (HBSS) containing the antibiotics gentamycin and arnphotericin B. Blood vessels and meninges were removed and the tissue was minced into small pieces. After mincing, the tissue was enzymatically dissociated by incubation in 0.05% trypsin and mechanically disrupted by passing several times over a 75 μm nylon mesh filter. The resulting single cell suspension was washed, pelleted and plated at a density of 2-10×10^6 cells per 162 cm^2 flask in DMEM:F12 containing 10% fetal calf […], gentamycin, and L-glutamine. After 7-10 days of growth, microglial cells were isolated by placement on rotary shaker at 200 rpm in a 37° C. incubator overnight. The non-adherent cells were removed and allowed to attach to a new flask for 1 to 3 h. Following attachment, the cells were washed and refed with media containing 10% fetal calf serum, insulin, gentamycin, L-gluntamine, and N1 supplement. Astocyes were subeultured from adherent cells in media containing 15% fetal calf serum, insulin, gentamycin, and L-glutamine and contaminating microglia were removed by repeated rotary shaking. Cultured astrocytic and nicroglial cells were plated at a density of 2.5×10^5 per well into 6 well plates for subseqent infection.
Brain derived primary HIV-1 isolates SF162 and JR-FL were cultured in human peripheral blood mononuclear cells (PBMC) essentially as described by Gartner and Popovic^12. PBMC were isolated from human buffy coat by ficoll gradient and plated at a density of 2.5×10^6 per ml in RPMI containing 10% fetal calf serum and gentamycin. Cells were stimulated by the addition of 5 μg/ml of phytohemagglutinin (PHA) for 48 h. After stimulation, cells were infected with either SF162 or JR-FL and cultured for 7 to 10 days until high titres of MIV-1 were detected in the supernatant by p24 ELISA assay. When viral production was optimal, the cells were pelleted, the supernatant containing HIV-1 was aliquoted and stored at −70° C. until use. P24 ELISA assay was performed on an aliquot of stock to determine the viral titre.
Microglial or astrocytic cells (2.5×10^5) were plated per well into 6-well plates. The next day, cells were washed and refed with fresh medium. […]

PKAc = assay: Western blot of PKAc in B16-F10 melanoma cell extracts; assay type: cell-based; conditions: antagonist 0.01 μM with IB-MECA
Description: as §1, §2, §3

B16-F10 melanoma cells = assay: [3H]-thymidine incorporation cell proliferation assay; assay type: cell-based; conditions: antagonist 0.01 μM added in the presence of IB-MECA
Description: as §1
[^3H]-thymidine incorporation assay as used to evaluate cell growth. B136-F10 melanom Cella (1.5×10^4/ml) were incubated with IB-MECA (0.0 μM-10 μM) in 96-well microtiter plates for 24 hours. To test whether IB-MECA exerted its effect on tumor cells through binding to A3AR, an antagonist to A3AR, MRS-1523, was added to the cell cultures in the presence of IB-MECA. Cultures of B16-F10 melanoma cells tat were incubated in the presence of MRS-1523 only, served as controls. For the last 6 h of incubation, each well was pulsed with 1 μCi [3H]-thymidine. Cells were harvested and the [^3H]-thyine uptake was determined in an LKB liquid scintillation counter (LKB, Piscataway, N.J., USA). These experiments were repeated at least 10 times.

`Nc1ncnc2c1nc(Br)n2[C@@H]1O[C@@H]2COP(=O)(O)O[C@H]2[C@H]1O` [8Br cAMP] was tested, and the “level of GSK-3β” value (GSK-3β; 8Br cAMP added to culture to mimic A2AR activation) was “decrease”.
`CNC(=O)C1OC(n2cnc3c(NCc4cccc(I)c4)nc(Cl)nc32)C(O)C1O` (centres unmarked) [Cl-IB-MECA] was tested, and the “p 24 Day 5” value (HIV-1 SF162) was 288.77 pg/mL, the “hair growth on the skin” value (hair growth) was “hair grew” and the “p 24 Day 5” value (HIV-1 JR-FL) was 8.45 pg/mL. For the same compound, the “level of β-catenin in tumor tissue” value (β-catenin) was “decrease”, the “level of cyclin D1 in tumor tissue” value (cyclin D1) was “decrease” and the “level of c-myc in tumor tissue” value (c-myc) was “decrease”. For the same compound, the “p 24 Day 10 after infection” value (HIV-1 SF126; 0.01, HIV control 209.18) was 111.05 pg/mL, the “p 24 Day 5 after infection” value (HIV-1 SF126; 0.01, HIV control 267.99) was 127.03 pg/mL and the “p 24 Day 10 after infection” value (HIV-1 SF126; 0.1, HIV control 209.18) was 80.37 pg/mL. For the same compound, the “p 24 Day 5 after infection” value (HIV-1 SF126; 0.1, HIV control 267.99) was 10.81 pg/mL.
For `CCCOC(=O)c1c(-c2ccccc2)nc(CC)c(C(=O)SCC)c1CCC` [MRS-1523], the “effect on the IB-MECA induced decrease in PKAc” value (PKAc) was “reversed”, the “effect on the inhibitory effect of IB-MECA on melanoma cell growth” value (B16-F10 melanoma cells) was “reversed the inhibitory effect of IB-MECA” and the “effect on the IB-MECA induced increase in GSK-3β levels” value (GSK-3β; antagonist 0.01 μM with IB-MECA) was “reversed”.
